Assay results published in PubChem BioAssay AID1919006 (Molecular Pharmacology Branch, DTP, NCI, 2023).
Values joined by “and” are separate entries in the source; they are usually repeats but may differ in a detail not shown here. Equal entries are not always repeated.

Test system: 885512-296-R-J2-PDC complex spheroid growth, % test/control
Assay: Anticancer human tumor 885512-296-R-J2-PDC patient-derived breast carcinoma cell line growth inhibition [AhR]
Details: for viability, T/C: stronger effect = lower value
Excerpt: Multicellular complex tumor spheroid response to aryl hydrocarbon receptor antagonists in combination with a variety of drugs and investigational agents in selected tumor cell lines
The current study was undertaken to assess response to aryl hydrocarbon receptor antagonists in combination with standard-of-care drugs and investigational agents in solid tumor complex spheroid models. Complex spheroids include a stromal component modeled by human endothelial cells (HUVEC) and fibroblasts modeled by human mesenchymal stem cells (MSCs). The concentration ranges selected for each drug and investigational agent were based upon clinically achievable concentrations if the clinical Cmax of the agent was known.
Compounds. The drugs and investigational agents: BAY 2416964 (NSC825713), GNF351 (NSC835774), CH-223191 (NSC835775), CPI-455 (NSC825282), aza-TdCyd (NSC777586), decitabine (NSC127716), belinostat (NSC758774), entinostat (NSC756642), pevonedistat (NSC761192), tazemetostat (NSC777109), talazoparib (NSC765396), olaparib (NSC753686), selinexor (NSC780203), nedisertib (M3814, NSC802822), bortezomib (NSC756655), venetoclax (NSC766270), doxorubicin (NSC123127), elimusertib (BAY189344, NSC800525), ceralasertib (AZD6738, NSC777638), TAK-243 (NSC785004), alisertib (NSC759677), etoposide (NSC141540), topotecan (NSC609699), eribulin (NSC707389), gemcitabine (NSC613327), carboplatin (NSC241240), cisplatin (NSC119875), and SN-38 (NSC673596) were obtained from the National Cancer Institute (NCI) Developmental Therapeutics Program Chemical Repository (32). The FDA-approved anticancer drug set is available from the Developmental Therapeutics Program at https://dtp.cancer.gov/organization/dscb/obtaining/available plates.htm. […] The stock solutions were prepared in dimethyl sulfoxide (DMSO, Sigma-Aldrich, St. Louis, MO, cat. D2650), except for the platinum compounds which were prepared in saline (Quality Biological, Gaithersburg, MD, cat. 114-055-101), at 800-fold the tested concentration and stored at -70 degrees C prior to their use. All drugs and investigational agents were tested over a range starting from a high concentration at or near the clinical Cmax and decreasing in half-log increments. If the clinical Cmax for an agent had not been determined, the highest concentration tested was 10 microM (Table 1).
Cell Culture. All cells were maintained in an incubator at 37 degrees C and 5% CO2 with 95% humidity. The PDC lines were cultured according to standard operating procedures established by the NCI PDMR (https://pdmr.cancer.gov). Briefly, all PDCs were thawed and cultured in Matrigel-coated flasks prepared with a working solution of 1X Ham's F-12 nutrient mix, without supplementation (Invitrogen, Waltham, MA, cat. 11765054), 100 U/mL penicillin-streptomycin (Invitrogen, cat. 15140122), and 2.5% Matrigel (Corning Inc., Corning, NY, cat. 354248) for the first three passages. All PDCs were cultured in complete DMEM/F-12 media containing advanced DMEM/F-12 (Invitrogen, cat. 12634028), 4.9% defined fetal bovine serum, heat inactivated (HyClone Laboratories Inc., Logan, UT, cat. SH30070.03HI), 389 ng/mL hydrocortisone (Sigma-Aldrich, cat. H4001), 9.7 ng/mL human EGF recombinant protein (Invitrogen, cat. PHG0313), 23.4 microg/mL adenine (Sigma-Aldrich, cat. A2786), 97.3 U/mL penicillin-streptomycin (Invitrogen, cat. 15140122), 1.9 mM L-glutamine (Invitrogen, cat. 25030081), and 9.7 microM Y-27632 dihydrochloride (Tocris Bioscience, Bristol, United Kingdom, cat. 1254). The PDCs were cultured in complete DMEM/F12 media without 10 microM Y-27632 dihydrochloride for at least two passages prior to the screen. The established cell lines NCI-H1341 and […] were cultured in DMEM/F-12, HEPES (Invitrogen, cat. 11330032), 5% defined fetal bovine serum (HyClone Laboratories Inc., cat. SH30070.03), ITS premix universal culture supplement [insulin (5 microg/mL), transferrin (5 microg/mL), and selenious acid (5 ng/mL)] […]

[1] = curve of first compound, second compound 0.1 µM
[2] = curve of first compound, second compound 0.316 µM
[3] = curve of first compound, second compound 1 µM
[4] = curve of first compound, second compound 3.16 µM
[5] = curve of first compound, second compound 10 µM
[6] = second compound 0.1 µM, first compound 0.00316 µM
[7] = second compound 0.1 µM, first compound 0.01 µM
[8] = second compound 0.1 µM, first compound 0.0316 µM
[9] = second compound 0.1 µM, first compound 0.1 µM
[10] = second compound 0.1 µM, first compound 0.316 µM
[11] = second compound 0.1 µM, first compound 1 µM
[12] = second compound 0.316 µM, first compound 0.00316 µM
[13] = second compound 0.316 µM, first compound 0.01 µM
[14] = second compound 0.316 µM, first compound 0.0316 µM
[15] = second compound 0.316 µM, first compound 0.1 µM
[16] = second compound 0.316 µM, first compound 0.316 µM
[17] = second compound 0.316 µM, first compound 1 µM
[18] = second compound 1 µM, first compound 0.00316 µM
[19] = second compound 1 µM, first compound 0.01 µM
[20] = second compound 1 µM, first compound 0.0316 µM
[21] = second compound 1 µM, first compound 0.1 µM
[22] = second compound 1 µM, first compound 0.316 µM
[23] = second compound 1 µM, first compound 1 µM
[24] = second compound 3.16 µM, first compound 0.00316 µM
[25] = second compound 3.16 µM, first compound 0.01 µM
[26] = second compound 3.16 µM, first compound 0.0316 µM
[27] = second compound 3.16 µM, first compound 0.1 µM
[28] = second compound 3.16 µM, first compound 0.316 µM
[29] = second compound 3.16 µM, first compound 1 µM
[30] = second compound 10 µM, first compound 0.00316 µM
[31] = second compound 10 µM, first compound 0.01 µM
[32] = second compound 10 µM, first compound 0.0316 µM
[33] = second compound 10 µM, first compound 0.1 µM
[34] = second compound 10 µM, first compound 0.316 µM
[35] = second compound 10 µM, first compound 1 µM
[36] = second compound 0.1 µM, first compound 3.16 µM
[37] = second compound 0.1 µM, first compound 10 µM
[38] = second compound 0.316 µM, first compound 3.16 µM
[39] = second compound 0.316 µM, first compound 10 µM
[40] = second compound 1 µM, first compound 3.16 µM
[41] = second compound 1 µM, first compound 10 µM
[42] = second compound 3.16 µM, first compound 3.16 µM
[43] = second compound 3.16 µM, first compound 10 µM
[44] = second compound 10 µM, first compound 3.16 µM
[45] = second compound 10 µM, first compound 10 µM
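Further: spheroids exposed to compounds for seven days.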

SMILES | IC50 [1] | IC50 [2] | IC50 [3] | IC50 [4] | IC50 [5] | viability, T/C [8] | viability, T/C [9] | viability, T/C [10] | viability, T/C [11] | viability, T/C [14] | viability, T/C [15] | viability, T/C [16] | viability, T/C [17] | viability, T/C [20] | viability, T/C [21] | viability, T/C [22] | viability, T/C [23] | viability, T/C [26] | viability, T/C [27] | viability, T/C [28] | other results
Nc1ncn(C2CC(O)C(CO)O2)c(=O)n1 (configuration not stated) + Cc1cncc(-c2nc(NCCc3c[nH]c4ccccc34)c3ncn(C(C)C)c3n2)c1 | 863 nM | 871 nM | > 1000 nM | 354 nM | < 3.16 nM | 101% | 93.6% | 74.4% | 46.4% | 88.9% | 93.7% | 77.7% | 45.9% | 80.7% | 90.4% | 76% | 58.5% | 57.2% | 58.3% | 46% | viability, T/C [6]: 93.5%; viability, T/C [7]: 104%; viability, T/C [12]: 101%; viability, T/C [13]: 113%; viability, T/C [18]: 91.5%; viability, T/C [19]: 86%; viability, T/C [24]: 67.8%; viability, T/C [25]: 68.5%; viability, T/C [29]: 48.1%; viability, T/C [30]: 18.5%; viability, T/C [31]: 20.6%; viability, T/C [32]: 20.7%; viability, T/C [33]: 11.7%; viability, T/C [34]: 14.9%; viability, T/C [35]: 12.7%
O=C(C=Cn1cnc(-c2cc(C(F)(F)F)cc(C(F)(F)F)c2)n1)NNc1cnccn1 | – | – | – | – | – | – | – | – | – | – | – | – | – | – | – | – | – | – | – | – | viability, T/C (compound 0.00949 µM): 95.6% and 113% and 96.3%; viability, T/C (compound 0.03 µM): 100% and 113% and 117%; viability, T/C (compound 0.0949 µM): 38% and 25% and 25.8%; viability, T/C (compound 0.3 µM): 5.56% and 4.15% and 4.46%; viability, T/C (compound 0.949 µM): 2.2% and 1.47% and 2.93%; viability, T/C (compound 3 µM): 1.21% and 0.91% and 1.13%; IC50 (curve of compound): 75.3 nM and 68.3 nM and 67.1 nM
Nc1ncn(C2CC(O)C(CO)O2)c(=O)n1 (configuration not stated) + CC(CO)NC(=O)c1cc(-c2ccc(Cl)cc2)nn(-c2cnn(C)c2)c1=O | 793 nM | 892 nM | 878 nM | > 1000 nM | > 1000 nM | 85.5% | 89% | 76.3% | 43% | 91.5% | 101% | 80.8% | 46.6% | 90.5% | 92.9% | 77.7% | 46% | 82.7% | 78.8% | 88.9% | viability, T/C [6]: 94.9%; viability, T/C [7]: 94.5%; viability, T/C [12]: 81.8%; viability, T/C [13]: 88.4%; viability, T/C [18]: 95.4%; viability, T/C [19]: 104%; viability, T/C [24]: 97.8%; viability, T/C [25]: 95%; viability, T/C [29]: 56.4%; viability, T/C [30]: 88.9%; viability, T/C [31]: 92.5%; viability, T/C [32]: 84.1%; viability, T/C [33]: 79.7%; viability, T/C [34]: 82.3%; viability, T/C [35]: 62.1%
O=C(c1cc(Cc2n[nH]c(=O)c3ccccc23)ccc1F)N1CCN(C(=O)C2CC2)CC1 + CC(CO)NC(=O)c1cc(-c2ccc(Cl)cc2)nn(-c2cnn(C)c2)c1=O | 6930 nM | 6970 nM | 7140 nM | 7140 nM | 4620 nM | 98.1% | 106% | 110% | 137% | 102% | 89.7% | 112% | 121% | 96.4% | 102% | 105% | 118% | 94.7% | 98.4% | 111% | viability, T/C [36]: 98.1%; viability, T/C [37]: 27.5%; viability, T/C [38]: 95.5%; viability, T/C [39]: 29.2%; viability, T/C [40]: 104%; viability, T/C [41]: 27.8%; viability, T/C [29]: 113%; viability, T/C [42]: 91.9%; viability, T/C [43]: 32.5%; viability, T/C [32]: 98.1%; viability, T/C [33]: 96%; viability, T/C [34]: 109%; viability, T/C [35]: 93.6%; viability, T/C [44]: 62.1%; viability, T/C [45]: 25.8%
COc1cccc2c1C(=O)c1c(O)c3c(c(O)c1C2=O)CC(O)(C(=O)CO)CC3OC1CC(N)C(O)C(C)O1 (configuration not stated) + Cc1ccccc1N=Nc1ccc(NC(=O)c2ccnn2C)c(C)c1 | < 31.6 nM | < 31.6 nM | < 31.6 nM | < 31.6 nM | < 31.6 nM | 15.3% | 14.2% | 2.62% | 0.35% | 16% | 14.5% | 3.8% | 0.52% | 16% | 12.7% | 2.55% | 0.36% | 15.9% | 13.5% | 2.36% | viability, T/C [36]: 1.6%; viability, T/C [37]: 1.27%; viability, T/C [38]: 1.44%; viability, T/C [39]: 1.34%; viability, T/C [40]: 1.75%; viability, T/C [41]: 1.27%; viability, T/C [29]: 0.36%; viability, T/C [42]: 1.22%; viability, T/C [43]: 0.78%; viability, T/C [32]: 13.2%; viability, T/C [33]: 10.1%; viability, T/C [34]: 1.82%; viability, T/C [35]: 0.82%; viability, T/C [44]: 1.07%; viability, T/C [45]: 1.04%
